# Results from PMC7376644 (Pharmacology Research & Perspectives, 2020).
# Key:
# CYP1A2 [1] = biological target: T1, CYP1A2 (Homo sapiens, UniProt P05177); experiment: Enzyme kinetics of hydroxylated metabolites formation; type: in vitro ADME; parameters: purchased CYPEX CYP001; host or cells: Escherichia coli; conditions: CYP1A2, formation of cis‐4‐OH‐PZQ
# T1 sequence (P05177 1-516): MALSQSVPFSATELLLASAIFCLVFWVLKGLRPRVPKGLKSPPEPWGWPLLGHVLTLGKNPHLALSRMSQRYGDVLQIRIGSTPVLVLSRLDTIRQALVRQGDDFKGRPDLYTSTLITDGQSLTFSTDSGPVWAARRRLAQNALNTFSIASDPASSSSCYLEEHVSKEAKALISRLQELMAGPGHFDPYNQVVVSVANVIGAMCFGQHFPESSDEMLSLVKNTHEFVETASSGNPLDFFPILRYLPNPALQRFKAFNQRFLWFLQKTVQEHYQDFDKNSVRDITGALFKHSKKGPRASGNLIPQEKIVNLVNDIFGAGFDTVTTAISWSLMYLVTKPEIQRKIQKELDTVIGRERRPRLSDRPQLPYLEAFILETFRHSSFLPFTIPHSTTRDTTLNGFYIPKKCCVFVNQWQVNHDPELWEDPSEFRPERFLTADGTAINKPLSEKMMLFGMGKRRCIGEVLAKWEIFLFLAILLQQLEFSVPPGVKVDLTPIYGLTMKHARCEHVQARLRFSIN
# Procedure: (§1) The reactions were carried out in duplicate at each time point. Incubation conditions used for the determination of K M and V max were optimized for linearity with respect to time and protein concentrations. […] Metabolites were analyzed by LC‐MS/MS as described below. The K M and V max values of each marker substrate were determined using nonlinear least squares regression analysis in GraFit software (version 3.0, Erithacus Software Limited) and SigmaPlot Enzyme Kinetics Module for Windows 7.0 (SPSS, Inc).
# (§2) The well‐stirred model was used to estimate the hepatic clearance (CLH) due to metabolism.
# HLM [2] = experiment: as above; type: in vitro ADME, human
# Procedure: as §1, with “Inc). […]” for “Inc).”
# CYP3A4/5 = experiment: CYP selective diagnostic inhibition studies in HLM, ketoconazole; type: in vitro ADME, human; conditions: ketoconazole 10 µmol/L
# Procedure: (§3) Reactions were carried out in triplicate in 96 well plates. Each reaction was measured at 2 time points, that is at 0 and 30 minutes. […] Furafylline, KTZ, ticlopidine, and quinidine were used as diagnostic inhibitors for CYP 1A2, 3A4/5, 2C19 and 2D6, respectively. The reactions were initiated by addition of NADPH after a pre‐incubation of 5 minutes at 37°C. All reactions were terminated by the addition of 150 µL ice‐cold ACN. Internal standard (0.2 µmol/L DPZ) was added to ACN prior to termination of the assay. This was followed by centrifugation at 4500 g for 20 minutes. An aliquot (50 µL) supernatant was collected and 5 µL was injected and analyzed by liquid chromatography/tandem mass spectrometry (LC/MS/MS). The percent effect of each inhibitor was the estimated contribution of the inhibited CYP calculated using the relationship below: %contribution=amount remaining with inhibitor‐amount remaining without inhibitor/amount remaining without inhibitor×100.
# HLM [3] = experiment: Intrinsic clearance, substrate depletion approach; type: in vitro ADME, human; conditions: HLM, substrate depletion, well‐stirred model
# Procedure: The generic conditions were previously described by Masimirembwa and co‐workers. ^24 , ^25 Each reaction mixture consisted of substrate incubated with appropriate enzyme, substrate, and NADPH in potassium phosphate buffer pH 7.4 in a final volume of 200 µL. The substrate was diluted to 40% ACN so that the percent organic component in the final solution was maintained at 1%. The reactions were quenched with 3 volumes of stop solution containing ACN and 0.8% formic acid at 0, 5, 10, 20, 30, 40, and 60 minutes. This was followed by centrifugation at 4500 g for 20 minutes. An aliquot (50 µL) supernatant was collected and diluted (1:1) in water prior to LC‐MS/MS analysis.
# Each reaction was monitored over 7 time points.
# as §2
# CYP2C19 [4] = experiment: CYP selective diagnostic inhibition studies in HLM, ticlopidine; type: in vitro ADME, human; conditions: ticlopidine 10 µmol/L
# Procedure: as §3
# [5] = cited from earlier work
# [6] = cited from earlier work; remark: listed apart in the source
# CYP2D6 = experiment: CYP selective diagnostic inhibition studies in HLM, quinidine; type: in vitro ADME, human; conditions: quinidine 10 µmol/L
# Procedure: as §3
# CYP2C19 [7] = biological target: CYP2C19 (Homo sapiens, UniProt P33261); experiment: Enzyme kinetics of hydroxylated metabolites formation; type: in vitro ADME; parameters: purchased CYPEX CYP008; host or cells: Escherichia coli; conditions: CYP2C19, formation of cis‐4‐OH‐PZQ
# Sequence of CYP2C19 (Homo sapiens, UniProt P33261) (P33261 whole entry): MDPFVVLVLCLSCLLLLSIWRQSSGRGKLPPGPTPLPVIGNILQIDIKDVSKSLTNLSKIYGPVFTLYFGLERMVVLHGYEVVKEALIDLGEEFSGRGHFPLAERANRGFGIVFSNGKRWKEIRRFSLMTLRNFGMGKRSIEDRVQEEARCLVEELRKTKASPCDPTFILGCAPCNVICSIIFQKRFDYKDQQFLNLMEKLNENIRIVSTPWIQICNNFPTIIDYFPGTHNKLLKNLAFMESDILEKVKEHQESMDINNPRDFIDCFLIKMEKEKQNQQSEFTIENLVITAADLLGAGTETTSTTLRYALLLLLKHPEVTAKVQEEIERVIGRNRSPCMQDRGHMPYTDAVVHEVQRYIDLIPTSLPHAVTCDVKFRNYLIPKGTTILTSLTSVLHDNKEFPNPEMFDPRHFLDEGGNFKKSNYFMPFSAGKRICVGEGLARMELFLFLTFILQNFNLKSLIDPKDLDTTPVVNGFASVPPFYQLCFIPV
# Procedure: as §1, §2
# [8] = Simcyp prediction of total hepatic clearance; parameters: species or system human
# Procedure: The clearance of the incubation mixture was expressed as μL/min/pmol for rCYP.
# as §2
# CYP1A2 [9] = experiment: CYP selective diagnostic inhibition studies in HLM, furafylline; type: in vitro ADME, human; conditions: furafylline 10 µmol/L
# Procedure: as §3
# [10] = cited from earlier work; for Increase of exposure with KTZ: PZQ metabolism inhibited by KTZ
"CLuH,int (CYP1A2 [1]) [mL/min/kg]",K M [SD] (HLM [2]; formation of X‐OH‐PZQ),V max [SD] (HLM [2]; formation of X‐OH‐PZQ),K M [SD] (HLM [2]; formation of cis‐4‐OH‐PZQ),V max [SD] (HLM [2]; formation of cis‐4‐OH‐PZQ),Contribution of CYP3A4/5 (CYP3A4/5) [%],Predicted CLH (HLM [3]) [mL/min/kg],Contribution of CYP2C19 (CYP2C19 [4]) [%],Contribution of CYP2D6 (CYP2D6) [%],"CLuH,int (CYP2C19 [7]) [mL/min/kg]",Predicted total CLH (Simcyp) ([8]; metabolite formation assay) [mL/min/kg],Predicted total CLH (Simcyp) ([8]; substrate depletion assay) [mL/min/kg],Contribution of CYP1A2 (CYP1A2 [9]) [%],Structure (SMILES),Fraction unbound in plasma (fu) [5],Oral dose eliminated renally (unchanged drug and metabolites) [6],Systemic bioavailability [6] [%],Increase in bioavailability ([6]; co‐administration with cimetidine) [%],Drug excreted within 24 hours ([6]; in man),Increase of exposure with KTZ [10] [%],Amount relative to cis 4‐OH PZQ in vivo ([10]; ref NLeya et al (19)) [times]
6.870,118.6 [35.79] µmol/L,11.10 [2.074] nmol/min/mg protein,32.60 [3.982] µmol/L,0.5978 [0.028] nmol/min/mg protein,97,11.70,127,35,4.600,11.44,3.656,−54,"O=C(C1CCCCC1)N1CC(=O)N2CCc3ccccc3C2C1 (stereo not drawn) [PZQ, praziquantel]",0.2,More than 80%,< 20,100,more than 80%,–,–
–,–,–,–,–,–,–,–,–,–,–,–,–,"O=C(C1CCC(O)CC1)N1CC(=O)N2CCc3ccccc3C2C1 (stereo not drawn) [trans‐4‐OH PZQ, trans‐4‐hydroxy‐PZQ]",–,–,–,–,–,67,30
–,–,–,–,–,–,–,–,–,–,–,–,–,"O=C1CN(C(=O)[C@H]2CC[C@@H](O)CC2)CC2c3ccccc3CCN12 (stereo partly drawn) [cis‐4‐OH PZQ, cis‐4‐hydroxy‐PZQ]",–,–,–,–,–,57,–
